PubChem BioAssay AID1963965 (Molecular Pharmacology Branch, DTP, NCI, 2024)
Values belong to the compound of their own block, whether it stands above or below them.

Tested on: 996289-038-R-J1-PDC spheroid viability
Test: Anticancer human tumor 996289-038-R-J1-PDC patient-derived colon adenocarcinoma cell line growth inhibition [PI3K]
Conditions: spheroids with HUVEC and MSC; for viability, T/C: stronger effect = lower value
Method in brief: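 Spheroid viability read-out. Co-cultures contained the tumor line plus HUVEC and human MSCs. Each agent was paired with a PI3K inhibitor (inavolisib, alpelisib, duvelisib, copanlisib) across half-log dilutions starting at clinical Cmax, or at 10 microM when Cmax was unknown.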

[1] = curve of first compound, second compound 0.0316 µM
[2] = curve of first compound, second compound 0.1 µM
[3] = curve of first compound, second compound 0.316 µM
[4] = curve of first compound, second compound 1 µM
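Note: spheroids exposed to compounds for seven days before viability read.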
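Throughout, for viability, T/C: luminescence used as a proxy for viable cell amount; percent viability relative to DMSO vehicle control as 100%.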

IC50 (curve of first compound, second compound 0.00316 µM): 8.46 µM | IC50 (curve of first compound, second compound 0.01 µM): 8.25 µM | IC50 [1]: 6.53 µM | IC50 [2]: 6.52 µM | IC50 [3]: 4.81 µM | IC50 [4]: 4.21 µM
Compound: CC1(C)CCC(CN2CCN(c3ccc(C(=O)NS(=O)(=O)c4ccc(NCC5CCOCC5)c([N+](=O)[O-])c4)c(Oc4cnc5[nH]ccc5c4)c3)CC2)=C(c2ccc(Cl)cc2)C1 + CC(Nc1ccc2c(c1)OCCn1cc(N3C(=O)OCC3C(F)F)nc1-2)C(N)=O
viability, T/C (second compound 0.00316 µM, first compound 0.0316 µM): 83.7% | viability, T/C (second compound 0.00316 µM, first compound 0.1 µM): 77.4% | viability, T/C (second compound 0.00316 µM, first compound 0.316 µM): 95.8% | viability, T/C (second compound 0.00316 µM, first compound 1 µM): 112% | viability, T/C (second compound 0.00316 µM, first compound 3.16 µM): 93.5% | viability, T/C (second compound 0.00316 µM, first compound 10 µM): 42.7% | viability, T/C (second compound 0.01 µM, first compound 0.0316 µM): 92.3% | viability, T/C (second compound 0.01 µM, first compound 0.1 µM): 86.7% | viability, T/C (second compound 0.01 µM, first compound 0.316 µM): 87.4% | viability, T/C (second compound 0.01 µM, first compound 1 µM): 111% | viability, T/C (second compound 0.01 µM, first compound 3.16 µM): 94.5% | viability, T/C (second compound 0.01 µM, first compound 10 µM): 41% | viability, T/C (second compound 0.0316 µM, first compound 0.0316 µM): 95.2% | viability, T/C (second compound 0.0316 µM, first compound 0.1 µM): 88.2% | viability, T/C (second compound 0.0316 µM, first compound 0.316 µM): 94.7% | viability, T/C (second compound 0.0316 µM, first compound 1 µM): 84.2% | viability, T/C (second compound 0.0316 µM, first compound 3.16 µM): 90% | viability, T/C (second compound 0.0316 µM, first compound 10 µM): 26.5% | viability, T/C (second compound 0.1 µM, first compound 0.0316 µM): 80.3% | viability, T/C (second compound 0.1 µM, first compound 0.1 µM): 81.4% | viability, T/C (second compound 0.1 µM, first compound 0.316 µM): 79.1% | viability, T/C (second compound 0.1 µM, first compound 1 µM): 96.7% | viability, T/C (second compound 0.1 µM, first compound 3.16 µM): 86.3% | viability, T/C (second compound 0.1 µM, first compound 10 µM): 29.4% | viability, T/C (second compound 0.316 µM, first compound 0.0316 µM): 70.3% | viability, T/C (second compound 0.316 µM, first compound 0.1 µM): 62.3% | viability, T/C (second compound 0.316 µM, first compound 0.316 µM): 61.7% | viability, T/C (second compound 0.316 µM, first compound 1 µM): 61.2% | viability, T/C (second compound 0.316 µM, first compound 3.16 µM): 74.6% | viability, T/C (second compound 0.316 µM, first compound 10 µM): 22% | viability, T/C (second compound 1 µM, first compound 0.0316 µM): 55.5% | viability, T/C (second compound 1 µM, first compound 0.1 µM): 50.7% | viability, T/C (second compound 1 µM, first compound 0.316 µM): 59.3% | viability, T/C (second compound 1 µM, first compound 1 µM): 59.8% | viability, T/C (second compound 1 µM, first compound 3.16 µM): 73.3% | viability, T/C (second compound 1 µM, first compound 10 µM): 25.9%

IC50 [1]: 0.207 µM | IC50 [2]: 0.166 µM | IC50 [3]: 0.225 µM | IC50 [4]: 0.218 µM | IC50 (curve of first compound, second compound 3.16 µM): 0.161 µM | IC50 (curve of first compound, second compound 10 µM): 0.114 µM
Compound: Cn1cnc2c(F)c(Nc3ccc(Br)cc3Cl)c(C(=O)NOCCO)cc21 + CC(Nc1ncnc2nc[nH]c12)c1cc2cccc(Cl)c2c(=O)n1-c1ccccc1
viability, T/C (second compound 0.0316 µM, first compound 0.00949 µM): 102% | viability, T/C (second compound 0.0316 µM, first compound 0.03 µM): 77.2% | viability, T/C (second compound 0.0316 µM, first compound 0.0949 µM): 67.1% | viability, T/C (second compound 0.0316 µM, first compound 0.3 µM): 39.3% | viability, T/C (second compound 0.0316 µM, first compound 0.949 µM): 33.5% | viability, T/C (second compound 0.0316 µM, first compound 3 µM): 21.2% | viability, T/C (second compound 0.1 µM, first compound 0.00949 µM): 94.4% | viability, T/C (second compound 0.1 µM, first compound 0.03 µM): 77% | viability, T/C (second compound 0.1 µM, first compound 0.0949 µM): 54.9% | viability, T/C (second compound 0.1 µM, first compound 0.3 µM): 42.8% | viability, T/C (second compound 0.1 µM, first compound 0.949 µM): 33.5% | viability, T/C (second compound 0.1 µM, first compound 3 µM): 23.9% | viability, T/C (second compound 0.316 µM, first compound 0.00949 µM): 108% | viability, T/C (second compound 0.316 µM, first compound 0.03 µM): 79.7% | viability, T/C (second compound 0.316 µM, first compound 0.0949 µM): 62.8% | viability, T/C (second compound 0.316 µM, first compound 0.3 µM): 45.1% | viability, T/C (second compound 0.316 µM, first compound 0.949 µM): 36.4% | viability, T/C (second compound 0.316 µM, first compound 3 µM): 21.2% | viability, T/C (second compound 1 µM, first compound 0.00949 µM): 85.5% | viability, T/C (second compound 1 µM, first compound 0.03 µM): 69% | viability, T/C (second compound 1 µM, first compound 0.0949 µM): 63.6% | viability, T/C (second compound 1 µM, first compound 0.3 µM): 43.9% | viability, T/C (second compound 1 µM, first compound 0.949 µM): 33.6% | viability, T/C (second compound 1 µM, first compound 3 µM): 19.2% | viability, T/C (second compound 3.16 µM, first compound 0.00949 µM): 83.5% | viability, T/C (second compound 3.16 µM, first compound 0.03 µM): 73.7% | viability, T/C (second compound 3.16 µM, first compound 0.0949 µM): 58.9% | viability, T/C (second compound 3.16 µM, first compound 0.3 µM): 37.7% | viability, T/C (second compound 3.16 µM, first compound 0.949 µM): 31.1% | viability, T/C (second compound 3.16 µM, first compound 3 µM): 18.2% | viability, T/C (second compound 10 µM, first compound 0.00949 µM): 94.1% | viability, T/C (second compound 10 µM, first compound 0.03 µM): 68.3% | viability, T/C (second compound 10 µM, first compound 0.0949 µM): 53.9% | viability, T/C (second compound 10 µM, first compound 0.3 µM): 36.2% | viability, T/C (second compound 10 µM, first compound 0.949 µM): 27% | viability, T/C (second compound 10 µM, first compound 3 µM): 13.9%

IC50 (curve of compound): > 10 µM
Compound: Cn1nccc1Nc1nccc(-c2ccn(C(CO)c3ccc(Cl)c(F)c3)c(=O)c2)n1 (configuration not stated)
viability, T/C (compound 0.0316 µM): 98.7% [middle of 4 runs] | viability, T/C (compound 0.1 µM): 97% [middle of 4 runs] | viability, T/C (compound 0.316 µM): 112% [middle of 4 runs] | viability, T/C (compound 1 µM): 90.8% [middle of 4 runs] | viability, T/C (compound 3.16 µM): 76.5% [middle of 4 runs] | viability, T/C (compound 10 µM): 64.7% [middle of 4 runs]

IC50 (compound alone, run of 06/13/2023): > 10 µM
Compound: CC(Nc1ncnc2nc[nH]c12)c1cc2cccc(Cl)c2c(=O)n1-c1ccccc1 (configuration not stated)
viability, T/C (compound 0.0316 µM): 99.9% [middle of 8 runs] | viability, T/C (compound 0.1 µM): 98% [middle of 8 runs] | viability, T/C (compound 0.316 µM): 97.6% [middle of 8 runs] | viability, T/C (compound 3.16 µM): 89.2% [middle of 8 runs] | viability, T/C (compound 10 µM): 95.7% [middle of 8 runs]
